Entries after “also recorded” stand apart in the source; their conditions may differ.
Columns and labels:
[1] = test system: Tau RD P301S FRET Biosensor cells; experiment: Biosensor cells treated with compound alone, no exogenous seeds; format: cell-based; conditions: 48 h
Experimental: Figure S17. […] Tau RD P301S FRET Biosensor cells were treated with PUR or OLC at the indicated concentrations for 48 h in the absence of any exogenous tau seeds or aggregation mixtures. Cells were then imaged under the same conditions described in Figure 5 to assess spontaneous FRET signal (CFP/YFP inclusions) as a readout of intracellular tau aggregation. […] Scale bar: 100 µm.

[2] = test system: preformed R2R3 (N279K) fibrils; experiment: Elongation of preformed R2R3 (N279K) fibrils, ThT; format: biochemical; conditions: R2R3 N279K pre-aggregated 24 h, compound 10 μM
Experimental: Peptides were pre‐aggregated for 24 h with aggregation kinetics monitored by ThT fluorescence, after which 10 μM PUR or OLC was added, followed by an additional 24–30 h of incubation (Figure 4a). Aggregation kinetics was monitored by ThT fluorescence, and elongation was quantified as the AUC following compound addition, normalized to each replicate's maximum pre‐treatment fluorescence (Figure 4b). […] WT peptide fibril elongation was reduced to 15.5 ± 2.8% (PUR) and 45.2 ± 3.2% (OLC), and P301L peptide fibril elongation was limited to 31.8 ± 0.6% (PUR) and 85.6 ± 2.2% (OLC) (Figure 4b). Fluorescence microscopy imaging further confirmed the presence of reduced ThT‐positive aggregates following the addition of PUR and OLC (Figure S12). Similar inhibition trends, with PUR outperforming OLC, were also observed for V287I and N279K peptides (Figure S12).
Figure S13. […] (a) ThT fluorescence kinetics of pre-aggregated R2R3 (V287I and N279K ) tau peptides treated with PUR or OLC (10 µM). Peptides were first allowed to aggregate for 24 h, followed by compound addition and continued incubation for an additional 24-30 h. […] Curves are normalized to each replicate’s maximum pre-treatment ThT fluorescence. […] (b) Aggregation levels post-treatment, expressed as a percentage of control (untreated fibrils), calculated from the AUC after compound addition. […]

[3] = test system: Tau RD P301S FRET Biosensor cells; experiment: Biosensor cell seeding assay, aggregation products formed with compound (co-aggregation); format: cell-based; conditions: 100 nM transduced, 48 h
Experimental: Tau peptides were aggregated with or without PUR or OLC in a 7.4 pH aggregation buffer without ThT. After 48 h, the contents of each well were pooled to a final total volume of 120 μL. The concentration of the pooled Aggregation Reaction Products was measured using the Pierce™ BCA Protein Assay Kit (Thermo Fisher Scientific Inc., Cat. # 23225). The reaction products were standardized for cell transduction to a final concentration of 100 nM for both control and drug‐treated samples. The pooled aggregation mixture was sonicated using a Branson Ultrasonic™ Sonifier Cup Horns (Marshall Scientific, Hampton, NH, USA) at 30% amplitude (15 s ON and 15 s OFF for 1 min) to fragment larger aggregates into smaller ones, facilitating consistent transduction.
Tau RD P301S FRET Biosensor cells were plated at 5 × 10^3 cells per well in PhenoPlate 384‐well, black, optically clear flat‐bottom plates (Revvity; Part # 6057302) pre‐coated with 50 μg/mL Poly‐ᴅ‐Lysine (Sigma‐Aldrich, Cat. # P6407). After plating, cells were incubated for 30 min at room temperature to promote better cell spreading before returning the plates to the incubator.
The next day, cells were transduced with 100 nM of aggregation mixture, which were either: (i) prepared in the absence (control) or presence of 10 μM PUR or OLC for co‐aggregation studies (Figure 5), or (ii) prepared exclusively in the absence of compounds for post‐transduction treatment studies (Figure 6). The aggregation mixtures were premixed with 0.2 μL per well TurboFect™ Transfection Reagent (Thermo Fisher Scientific Inc., Cat. # R0533) in 10 μL Opti‐MEM™ (Thermo Fisher Scientific Inc., Cat. #11058021) and added to cells.
For co‐aggregation studies (Figure 5), cells were cultured for 48 h after transduction before processing for imaging. For post‐transduction treatment studies (Figure 6), cells were cultured for 24 h following transduction, then treated with PUR or OLC at concentrations ranging from 0 to 10 μM, and incubated for an additional 24 h.
In both experiments (Figures 5 and 6), cells were fixed after a total of 48 h with 2% paraformaldehyde (Electron Microscopy Services, Cat. #15714‐1 L) for 10 min at room temperature, washed once with 1× PBS, and stained with 10 μM Hoechst‐33342 nuclear dye (Invitrogen, Cat. #H21492) for 10–15 min. To preserve samples for imaging, 1% glycerol in deionized water was added to each well.
Cells were imaged on a Cell Voyager 7000S high‐content imaging system (Yokogawa, Tokyo, Japan) with a 20× objective. CFP/YFP inclusions of seeded tau were detected using a 488 nm laser line (Ex = 460–490 nm, Em = 500–550 nm), and Hoechst‐stained nuclei were detected using a 405 nm laser line (Ex = 360–400 nm, Em = 410–480 nm). At least 10–15 focal areas per well were imaged for each replicate. Image analysis was performed using Signals Image Artist (Revvity) to quantify the number of cells (Hoechst‐stained nuclei) and intracellular CFP/YFP inclusions. Total inclusions per well were normalized to cell confluence and are presented as normalized seeding for graphing.

[4] = R2R3 N279K aggregated with 10 μM compound
[5] = R2R3 P301L aggregated with 10 μM compound
[6] = R2R3 V287I aggregated with 10 μM compound
[7] = R2R3 WT aggregated with 10 μM compound

C/C=C(/C=O)[C@@H](CC=O)CC(=O)OCCc1ccc(O)cc1 [OLC, oleocanthal]
induction of endogenous tau aggregation (FRET-positive inclusions) by compound alone [1]: No FRET-positive aggregates were detected; also recorded: no FRET‐positive inclusions were detected | elongation of preformed fibrils [2]: inhibit the elongation | intracellular seeding (CFP/YFP inclusions) by aggregation products [3, 4]: abolished the formation of species capable of inducing intracellular seeding; also recorded: significantly reduced seeding | intracellular seeding (CFP/YFP inclusions) by aggregation products [3, 5]: abolished the formation of species capable of inducing intracellular seeding; also recorded: significantly reduced seeding | intracellular seeding (CFP/YFP inclusions) by aggregation products [3, 6]: abolished the formation of species capable of inducing intracellular seeding; also recorded: near‐complete inhibition of seeding | intracellular seeding (CFP/YFP inclusions) by aggregation products [3, 7]: effectively abolishing intracellular seeding

O=C1c2ccccc2C(=O)c2c(O)c(O)cc(O)c21 [PUR, purpurin]
induction of endogenous tau aggregation (FRET-positive inclusions) by compound alone [1]: No FRET-positive aggregates were detected; also recorded: no FRET‐positive inclusions were detected | elongation of preformed fibrils [2]: inhibit the elongation | intracellular seeding (CFP/YFP inclusions) by aggregation products [3, 4]: abolished the formation of species capable of inducing intracellular seeding; also recorded: significantly reduced seeding | intracellular seeding (CFP/YFP inclusions) by aggregation products [3, 5]: abolished the formation of species capable of inducing intracellular seeding; also recorded: significantly reduced seeding | intracellular seeding (CFP/YFP inclusions) by aggregation products [3, 6]: abolished the formation of species capable of inducing intracellular seeding; also recorded: near‐complete inhibition of seeding | intracellular seeding (CFP/YFP inclusions) by aggregation products [3, 7]: did not affect the seeding competency
